Key:
recombinant hCB1r = recombinant hCB1r (Homo sapiens, UniProt P21554); assay type: biochemical
[1] = system: P-glycoprotein (P-gp) efflux pumps; conditions: cited from earlier work

Chain of recombinant hCB1r (P21554 whole entry): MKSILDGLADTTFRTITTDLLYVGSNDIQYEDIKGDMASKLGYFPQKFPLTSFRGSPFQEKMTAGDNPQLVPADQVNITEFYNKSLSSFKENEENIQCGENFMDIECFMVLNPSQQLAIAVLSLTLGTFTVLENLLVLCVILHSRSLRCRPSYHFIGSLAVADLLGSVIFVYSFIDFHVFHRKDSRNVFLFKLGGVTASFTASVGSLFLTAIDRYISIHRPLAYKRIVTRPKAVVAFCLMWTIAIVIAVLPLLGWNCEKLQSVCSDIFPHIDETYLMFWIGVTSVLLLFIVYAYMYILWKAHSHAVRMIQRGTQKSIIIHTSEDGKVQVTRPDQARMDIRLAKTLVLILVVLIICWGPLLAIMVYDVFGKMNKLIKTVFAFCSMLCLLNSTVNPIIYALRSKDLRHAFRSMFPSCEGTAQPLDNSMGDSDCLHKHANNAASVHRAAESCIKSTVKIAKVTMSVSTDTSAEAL

eudismic ratio (CB1 receptor affinity, (-)- vs (+)-enantiomer) (recombinant hCB1r) | SMILES | substrate behavior for P-gp efflux pumps [1]
~56 | NC(=NS(=O)(=O)c1ccc(I)cc1)N1CC(c2ccccc2)C(c2ccc(Cl)cc2)=N1 (stereo not drawn) [Ligand 12c, 3-(4-Chlorophenyl)-N’-[(4-iodophenyl)sulfonyl]-4-phenyl-4,5-dihydro-1H-pyrazole-1-carboxamidine] | 
about 35 | N#Cc1ccc(S(=O)(=O)N=C(N)N2CC(c3ccccc3)C(c3ccc(Cl)cc3)=N2)cc1 (stereo not drawn) [Ligand 12a, 3-(4-Chlorophenyl)-N’-[(4-cyanophenyl)sulfonyl]-4-phenyl-4,5-dihydro-1H-pyrazole-1-carboxamidine] | 
 | CN=C(NS(=O)(=O)c1ccc(Cl)cc1)N1C[C@H](c2ccccc2)C(c2ccc(Cl)cc2)=N1 [Ligand 3, (4S)-3-(4-chlorophenyl)-N-methyl-N’-[(4-chlorophenyl)sulfonyl]-4-phenyl-4,5-dihydro-1H-pyrazole-1-carboxamidine] | little to no substrate behavior
